In brackets after ≈: the same amount, converted by molar mass.
Assays:
Assay type in all cases: physicochemical
[1] = Encapsulation efficiency and load of furosemide in nanoparticles (Example 8)
Description: (§1) The encapsulation efficiency (EE) refers to the percentage of drug which is trapped in the chitosan-cyclodextrin system with respect to the quantity of drug added in the process of preparation of the nanoparticles. The drug load is indirectly determined from a calculation of the non-encapsulated drug which remains dissolved in the nanoparticles' suspension medium. The difference between this value and the theoretical drug content is taken to be the quantity of drug loaded in the nanoparticles. The drug load percentage which appears in the table is the percentage with respect to the quantity of encapsulated drug in 100 mg of nanoparticle.
The drug that was not dissolved by the cyclodextrin-polymer mixture was discarded during the filtration process (through 0.45 .m) which was conducted prior to crosslinking the polymer (see example 3). […]. […]

[2] = Encapsulation efficiency and load of triclosan, chitosanase degradation (Example 10); settings: 80% water/20% ethanol
Method: (§2) In a mixture of 80% water and 20% ethanol, solutions (3 ml) of chitosan (Protasan Cl110, 0.2%), HP.CD (0, 1.28 and 2.56 mM) and triclosan were prepared in a sufficient quantity to oversaturate the solution. These solutions were incubated for 24 h under magnetic stirring and, subsequently, filtered through a 0.45-.m filter and crosslinked by the addition of 1.2 ml of tripolyphosphate dissolved in a mixture of 80% water and 20% ethanol at a concentration of 1.25 mg/ml. The nanoparticles were isolated by centrifugation at 16000×g and resuspended in water. The size of the resulting particles and the polydispersion thereof were characterised by means of photon correlation spectroscopy (PCS). The quantity of encapsulated drug was determined by the degradation of an aliquot of the resuspended nanoparticles with the enzyme chitosanase (Chitosanase-RD, Pias Co, Japan), and the assessment was performed by means of spectrophotometry (.=280 nm).

[3] = Encapsulation efficiency and load of triclosan in nanoparticles (Example 7)
Method: (§3) Nanoparticles of chitosan-cyclodextrin were obtained according to the method described in example 2, but adding a sufficient quantity of the drug triclosan to the initial solutions in order to oversaturate the solution. The drug that was not dissolved by the cyclodextrin-polymer mixture was discarded during the filtration process (through 0.45 .m) which was conducted prior to crosslinking the polymer by means of ionotropic crosslinking (see example 2). […] The triclosan was measured by means of a spectrophotometric method (.=280 nm).
as §1

[4] = Dissolved triclosan in 80% water / 20% ethanol phase (Example 10)
Method: as §2

[5] = Solubility of triclosan in the initial chitosan-cyclodextrin solutions (Example 7); settings: aqueous with cosolvent or surfactant or cyclodextrin, thermodynamic from solid
Method: as §3

[6] = type HPCD •, 25 mM (first 25 mM line)
[7] = type HPCD •, 25 mM (second 25 mM line)

With NS(=O)(=O)c1cc(C(=O)O)c(NCc2ccco2)cc1Cl [furosemide] the “furosemide EE” value ([1]; HPCD 0 mM) was 22.3 ± 1.4%, the load of furosemide ([1]; HPCD 0 mM) was 0.23 ± 0.07% and the “furosemide EE” value ([1]; type HPCD •, 3.14 mM) was 17.1 ± 3.0%. For the same compound, the load of furosemide ([1]; type HPCD •, 3.14 mM) was 0.89 ± 0.04%, the “furosemide EE” value ([1]; type HPCD •, 6.29 mM) was 12.1 ± 1.3% and the load of furosemide ([1]; type HPCD •, 6.29 mM) was 1.43 ± 0.24%. The “furosemide EE” value [1, 6] was 7.2 ± 3.1%, the load of furosemide [1, 6] was 2.39 ± 0.72% and the “furosemide EE” value [1, 7] was 8.8 ± 2.7%. It also gave a load of furosemide [1, 7] of 1.92 ± 0.55%.
With Oc1cc(Cl)ccc1Oc1ccc(Cl)cc1Cl [triclosan] the load of triclosan ([2]; HP•CD 0 mM) was 2.2 ± 0.9%, the “triclosan EE” value ([2]; HP•CD 0 mM) was 22.3 ± 1.4% and the load of triclosan ([2]; HP•CD 1.28 mM) was 7.4 ± 1.3%. The “triclosan EE” value ([2]; HP•CD 1.28 mM) was 37.7 ± 7.3%, the load of triclosan ([2]; HP•CD 2.56 mM) was 8.7 ± 0.2% and the “triclosan EE” value ([2]; HP•CD 2.56 mM) was 33.5 ± 2.7%. For the same compound, the “triclosan EE” value ([3]; HPCD 0 mM) was 12.5 ± 8%, the triclosan load ([3]; HPCD 0 mM) was 0.8 ± 0.3% and the “triclosan EE” value ([3]; type HPCD •, 3.14 mM) was 5.2 ± 7%. For the same compound, the triclosan load ([3]; type HPCD •, 3.14 mM) was 1.1 ± 0.2%, the “triclosan EE” value ([3]; type HPCD •, 6.29 mM) was 4.8 ± 3% and the triclosan load ([3]; type HPCD •, 6.29 mM) was 2.2 ± 0.1%. For the same compound, the “triclosan EE” value [3, 6] was 5.5 ± 5%, the triclosan load [3, 6] was 3.1 ± 0.1% and the “triclosan EE” value [3, 7] was 4.6 ± 4%. The triclosan load [3, 7] was 2.0 ± 0.1%, the dissolved triclosan ([4]; HP•CD 0 mM) was 719 ± 79 mg/L and the dissolved triclosan ([4]; HP•CD 1.28 mM) was 2536 ± 283 mg/L. It also gave a dissolved triclosan ([4]; HP•CD 2.56 mM) of 3521 ± 213 mg/L, a solubility ([5]; HPCD 0 mM) of 68 ± 17 µg/mL (≈ 235 µM) and a solubility ([5]; type HPCD •, 3.14 mM) of 211 ± 24 µg/mL (≈ 729 µM). The solubility ([5]; type HPCD •, 6.29 mM) was 588 ± 18 µg/mL (≈ 2030 µM), the solubility [5, 6] was 1120 ± 13 µg/mL (≈ 3870 µM) and the solubility [5, 7] was 870 ± 59 µg/mL (≈ 3000 µM).
